What was measured:
[1] = system: KIBRA with conventional PKCs (PKCα, PKCβI, PKCβII, PKCγ); assay: BiFC assay of KIBRA with conventional PKCs in HEK293T cells; format: cell-based, human; conditions: 10 μM
Method: KIBRA-PKMζ BiFC was performed as previously described (28), using pVen1-FLAG-KIBRA and pVen2-HA-PKMζ, in which PKMζ was cloned between EcoR1 and BamH1 sites. The constructs pVen1 and pVen2 encode the N-terminus (amino acids 1-154) and C-terminus (amino acids 155-238) of the Venus protein, respectively, and the Venus fragments were on the N-terminal of the fusion proteins. pVen2-HA-PKMζ[PKCι/λ-P291Q;F297S] was generated by site-directed mutagenesis using forward-cctggagAagcAAatceggatcccccggtCcctgtccgte and reverse-gacggacaggGaccgggggatccggatTTgctTctccagg primers and the QuickChange II XL Site-Directed Mutagenesis Kit (Agilent Technologies), following manufacturer's instructions. Additional pVen2-HA-PKC isoforms and pVen2-HA-CaMKIIα in the pVen2-HA vector were generated by cloning the N-terminus of the coding sequence of each kinase (table S1) to obtain an in-frame fusion at the C-terminus of the pVen2-HA. Human versions of KIBRA and kinases were used, and all PCR amplified sequences and constructs were verified by DNA sequencing.
HEK293T cells were cultured in Dulbecco's Modified Eagle's Medium supplemented with 10% heat-inactivated fetal bovine serum, 100 U/ml penicillin, […] streptomycin, 2 mM glutamine, and 10 mM HEPES in a T75 tissue culture flask with canted neck and ventilated cap. […]

[2] = system: auditory-cued fear/threat memory in PKMζ-null mice; assay: Auditory-cued fear/threat conditioning, infusion into basolateral amygdala, PKMζ-null mice; format: in vivo, mouse; conditions: 6 nmol in 0.3 μL into each BLA, tested 1 day post-injection
Method: Mice were 8-10 weeks old at the time of cannulation and 9-11 weeks old at the beginning of behavioral experiments. Mice were housed with cage-mates in plastic cages and provided with food and water ad libitum. Mice were maintained on a 12 h light/dark cycle (lights on at 7:00 am) and behavioral experiments began at 9:00 am.
Mice were injected intraperitoneally (1 ml/100 g body weight) with an anesthetic cocktail containing ketamine (10 mg/ml) and xylazine (2 mg/ml). Mice were provided with analgesic treatment prior to surgery (carprofen; 5 mg/ml). Guide cannulae (Plastics One, Roanoke, VA) were implanted bilaterally in the basolateral amygdala (from bregma: AP-1.7 mm; L+/−3.0 mm; DV-4.4 mm) and secured to the skull with three jeweler's screws and dental cement. Antisedan (0.66 ml/100 g body weight of 0.5 mg drug/ml solution) was given via i.p. injection after surgery to reverse the anesthesia.
For 7 days following surgery, mice were handled by freely exploring the experimenter's palm for 2-5 min. Mice were habituated, trained, and tested in the same conditioning box (Coulbourn Habitest, Coulboum Instruments) with differing floors and walls to produce two different contexts (Context A and Context B). […] Freezing behavior (cessation of all movement except breathing) during the tone on Test 1 and Test 2 was scored by an experimenter blind to the conditions. […]

SMILES: O=S(=O)(O)c1cc(O)c2c(S(=O)(=O)O)cc(S(=O)(=O)O)cc2c1 [ζ-stat, 1-naphthol-3,6,8-trisulphonic acid]
- effect on BiFC of KIBRA with conventional PKCs [1]: has no effect
- auditory-cued fear/threat memory retention (% time freezing to tone) [2]: not in PKMζ-null mice

Source: patent US20250154212A1, “METHOD OF DISRUPTING MEMORY AND LIPOPEPTIDE FOR USE IN SUCH METHOD” (The Research Foundation for The State University of New York, priority 2023, published 2025)
